Test results published in ChEMBL document CHEMBL1201862, “PubChem BioAssay data set” (2004).
Calls of active or inactive are those of the source.

How the values were obtained:
[1] = biological target: T1, Voltage-gated N-type calcium channel alpha-1B subunit/Amyloid beta A4 precursor protein-binding family A member 1 (Homo sapiens, UniProt Q00975+Q02410); type: protein assay
[2] = biological target: T1, Voltage-gated N-type calcium channel alpha-1B subunit/Amyloid beta A4 precursor protein-binding family A member 1; type: protein assay; remark: listed apart in the source
[3] = biological target: T2, Polyadenylate-binding protein 1 (Homo sapiens, UniProt P11940); assay: PABP1 MLLE–PAM2 interaction inhibitors, dose response, miRNA deadenylation inhibitor project, biochemical, fluorescence polarization, Cy5-PAM2 peptide, secondary (AID 602260); type: functional; details: read-out: IC50_Mean
[4] = biological target: T2, Polyadenylate-binding protein 1; assay: PABP1 MLLE–PAM2 binding inhibitor potency, dose response, biochemical, fluorescence polarization, FITC-PAM2 peptide (AID 602259); type: functional; details: read-out: IC50_Mean
Estrogen receptor beta = Estrogen receptor beta (Homo sapiens, UniProt Q92731);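 note: recombinant ER-beta bound to coactivator SRC1 peptide in presence of estradiol agonist; inhibitors block coactivator peptide binding and lower the FRET signal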
Coagulation factor XII = biological target: T3, Coagulation factor XII (Homo sapiens, UniProt P00748); type: functional;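 note: activated factor XIIa alpha cleaving a fluorogenic AMC peptide substrate; inhibitor potency from loss of enzyme activity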
T3 sequence (P00748 whole entry): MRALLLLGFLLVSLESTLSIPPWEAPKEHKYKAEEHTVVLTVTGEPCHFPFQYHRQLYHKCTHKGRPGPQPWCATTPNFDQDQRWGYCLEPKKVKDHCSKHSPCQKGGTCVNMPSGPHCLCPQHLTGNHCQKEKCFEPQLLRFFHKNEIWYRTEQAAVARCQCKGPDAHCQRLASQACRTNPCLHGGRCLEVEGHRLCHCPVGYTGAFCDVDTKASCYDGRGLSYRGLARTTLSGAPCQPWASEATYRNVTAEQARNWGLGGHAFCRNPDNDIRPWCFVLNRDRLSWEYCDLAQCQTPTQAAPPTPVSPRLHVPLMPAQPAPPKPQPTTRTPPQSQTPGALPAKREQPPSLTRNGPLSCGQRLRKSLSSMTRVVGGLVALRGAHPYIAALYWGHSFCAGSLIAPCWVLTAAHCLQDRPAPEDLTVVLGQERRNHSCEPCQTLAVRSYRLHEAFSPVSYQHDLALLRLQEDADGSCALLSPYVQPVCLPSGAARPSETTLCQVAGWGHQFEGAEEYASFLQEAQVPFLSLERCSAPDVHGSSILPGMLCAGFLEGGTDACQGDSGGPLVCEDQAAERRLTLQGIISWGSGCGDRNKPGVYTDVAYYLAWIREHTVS

[5] = biological target: Disintegrin and metalloproteinase domain-containing protein 17 (Homo sapiens, UniProt P78536); assay: exosite inhibitors of ADAM17, dose response, biochemical (AID 743260)
[6] = ADAM10 protease inhibitors, dose response, selectivity assay for ADAM17 exosite inhibitor project, biochemical, FRET peptide substrate, recombinant human ADAM10 (AID 743259);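 note: ADAM10 enzyme cleaving a FRET peptide substrate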
[7] = Luminescence Cell-Based Dose Retest to Confirm Inhibitors of Cancer Stem Cells. [Related pubchem assays (depositor defined):AID2717, AID2721]; type: functional; details: Homo sapiens
[8] = Luminescence Cell-Based Dose Confirmation HTS to Identify Activators of 5'UTR Stem-Loop Driven Alpha-Synuclein mRNA Translation in H4 Neuroglioblastoma Cells. [Related pubchem assays: 1829 (Project Summary), 1814 (Primary HTS)]; type: functional
[9] = Luminescence Cell-Based Dose Response to Identify Activators of Luciferase Translation or Activity in H4-C Neuroglioblastoma Cells. [Related pubchem assays: 1829 (Project Summary), 1814 (Primary HTS)]; type: functional
[10] = Luminescence Cell-Based Dose Response HTS to Identify Activators of Luciferase Translation or Activity in H4 […] Cells. [Related pubchem assays: 1829 (Project Summary), 1814 (Primary HTS)]; type: functional
[11] = Luminescence Cell-Based Dose Response to Identify Activators of 5'UTR Stem-Loop Driven Prion Protein mRNA Translation in H4-C Neuroglioblastoma Cells. [Related pubchem assays: 1829 (Project Summary), 1814 (Primary HTS)]; type: functional
[12] = Luminescence Cell-Based Dose Confirmation to Identify Activators of 5'UTR Stem-Loop Driven Alpha-Synuclein mRNA Translation in H4 Neuroglioblastoma Cells. [Related pubchem assays: 1829 (Project Summary), 1814 (Primary HTS)]; type: functional
H4 = assay: Luminescence Cell-Based Dose Response HTS to Identify Activators of 5'UTR Stem-Loop Driven Prion Protein mRNA Translation in H4 Neuroglioblastoma Cells. [Related pubchem assays: 1829 (Project Summary), 1814 (Primary HTS)]; type: functional; details: Homo sapiens
[13] = cytotoxicity in HPDE-C7 cells, cell-based, fluorescence, HTS (AID 430); type: functional; details: Homo sapiens
[14] = biological target: FAD-linked sulfhydryl oxidase ALR (Homo sapiens, UniProt P55789); assay: inhibitors of human ALR sulfhydryl oxidase, dose response, biochemical, H2O2 detection, luminescence, cherry-pick (AID 493248)
[15] = growth suppression of PTEN-null colon cells, dose response, cell-based, HCT116 PTEN knockout (AID 1047); type: functional;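 note: HCT116 colon tumor cells with PTEN knocked out; cells exposed to compound for 60 hours before readout; potency for loss of cell viability measured by luminescence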
[16] = growth suppression of beta-catenin-knockout colon cells, dose response, cell-based, HCT116, human colon tumor (AID 1045); type: functional;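 note: HCT116 colon tumor cells with beta catenin knocked out; cells exposed to compound for 60 hours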
[17] = cytotoxicity in KRAS-transformed pancreatic duct cells, primary screen, cell-based, fluorescence, HTS (AID 431); type: functional; details: Homo sapiens;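 note: cell line used: HPDE-C7K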
[18] = biological target: Peroxisome proliferator-activated receptor gamma/Nuclear receptor coactivator 2 (Homo sapiens, UniProt P37231); assay: (§1) TR-FRET dose response biochemical High Throughput Screening assay for agonists of the steroid receptor coactivator 2 (SRC-2) recruitment by the peroxisome proliferator-activated receptor gamma (PPAR gamma): non-selective agonists. [Related pubchem assays: 1297, 1032 ]; type: functional
[19] = biological target: Peroxisome proliferator-activated receptor gamma/Nuclear receptor coactivator 1 (Homo sapiens, UniProt P37231); assay: as §1, with “1 (SRC-1)” for “2 (SRC-2)”, “assays (depositor defined):AID1300, AID1808, AID504735, AID631]” for “assays: 1297, 1032 ]”; type: protein assay
[20] = biological target: Peroxisome proliferator-activated receptor gamma/Nuclear receptor coactivator 3 (Homo sapiens, UniProt P37231); assay: as §1, with “3 (SRC-3)” for “2 (SRC-2)”, “1301 (Confirmation screen.), 1048 (Primary screen.)]” for “1297, 1032 ]”; type: functional
Cytochrome P450 2C19 = Cytochrome P450 2C19 (Homo sapiens, UniProt P33261); assay: Cytochrome panel assay with activity outcomes. Panel member name: p450-cyp2c19 Compounds with AC50 equal or less than 10 uM are considered active; type: functional; details: read-out: AC50
Cytochrome P450 3A4 = Cytochrome P450 3A4 (Homo sapiens, UniProt P08684);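 note: CYP3A4 tested as one member of a cytochrome P450 panel screen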
[21] = biological target: DNA dC->dU-editing enzyme APOBEC-3G (Homo sapiens, UniProt Q9HC16); assay: Dose Response confirmation of small molecule APOBEC3G DNA Deaminase Inhibitors via a fluorescence-based single-stranded DNA deaminase assay. [Related pubchem assays (depositor defined):AID493012, AID493028]; type: functional
[22] = HEp-2 cell cytotoxicity, dose response, cytotoxicity control for RSV inhibitor project, HTS (AID 2410); type: functional; details: human respiratory syncytial virus
[23] = biological target: T4, Histone-lysine N-methyltransferase NSD2 (Homo sapiens, UniProt O96028); type: biochemical
T4 sequence (O96028 whole entry): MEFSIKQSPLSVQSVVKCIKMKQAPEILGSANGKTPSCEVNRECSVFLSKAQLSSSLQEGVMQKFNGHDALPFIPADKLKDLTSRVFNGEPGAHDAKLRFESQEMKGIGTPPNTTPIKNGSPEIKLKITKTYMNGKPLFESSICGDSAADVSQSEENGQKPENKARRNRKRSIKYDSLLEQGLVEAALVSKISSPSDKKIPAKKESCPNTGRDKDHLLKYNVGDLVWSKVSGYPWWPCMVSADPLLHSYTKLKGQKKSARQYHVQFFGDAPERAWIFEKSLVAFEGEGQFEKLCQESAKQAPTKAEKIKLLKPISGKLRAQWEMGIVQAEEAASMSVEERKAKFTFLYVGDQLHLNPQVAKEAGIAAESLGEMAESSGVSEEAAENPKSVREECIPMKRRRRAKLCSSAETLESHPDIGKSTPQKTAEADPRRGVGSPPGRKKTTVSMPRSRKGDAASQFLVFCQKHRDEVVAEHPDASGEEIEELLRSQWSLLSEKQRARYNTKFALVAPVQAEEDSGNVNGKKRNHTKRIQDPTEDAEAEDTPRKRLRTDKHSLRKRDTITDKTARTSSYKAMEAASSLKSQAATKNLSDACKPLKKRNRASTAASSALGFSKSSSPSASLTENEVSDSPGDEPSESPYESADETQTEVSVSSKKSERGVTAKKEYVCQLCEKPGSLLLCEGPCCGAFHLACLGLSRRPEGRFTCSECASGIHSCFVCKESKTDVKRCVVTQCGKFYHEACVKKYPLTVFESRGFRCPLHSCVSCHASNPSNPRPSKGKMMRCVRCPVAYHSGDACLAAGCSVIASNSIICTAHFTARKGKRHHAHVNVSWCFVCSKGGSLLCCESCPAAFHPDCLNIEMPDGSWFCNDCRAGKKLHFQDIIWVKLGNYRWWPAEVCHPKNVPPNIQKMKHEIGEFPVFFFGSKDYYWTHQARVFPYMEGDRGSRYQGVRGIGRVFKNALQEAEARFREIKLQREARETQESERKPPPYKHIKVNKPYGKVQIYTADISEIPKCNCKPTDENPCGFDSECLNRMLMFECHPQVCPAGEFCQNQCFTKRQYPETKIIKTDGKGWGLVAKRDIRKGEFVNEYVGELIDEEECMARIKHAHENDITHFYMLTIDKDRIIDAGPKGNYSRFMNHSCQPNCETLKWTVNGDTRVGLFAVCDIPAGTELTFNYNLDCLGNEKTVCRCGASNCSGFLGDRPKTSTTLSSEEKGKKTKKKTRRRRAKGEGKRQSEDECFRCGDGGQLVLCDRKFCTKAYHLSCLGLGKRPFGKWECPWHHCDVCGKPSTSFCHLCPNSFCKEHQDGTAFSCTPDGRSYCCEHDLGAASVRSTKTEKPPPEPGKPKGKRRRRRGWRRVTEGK

Cytochrome P450 2C9 = Cytochrome P450 2C9 (Homo sapiens, UniProt P11712)

Sequence of Cytochrome P450 3A4 (P08684 whole entry): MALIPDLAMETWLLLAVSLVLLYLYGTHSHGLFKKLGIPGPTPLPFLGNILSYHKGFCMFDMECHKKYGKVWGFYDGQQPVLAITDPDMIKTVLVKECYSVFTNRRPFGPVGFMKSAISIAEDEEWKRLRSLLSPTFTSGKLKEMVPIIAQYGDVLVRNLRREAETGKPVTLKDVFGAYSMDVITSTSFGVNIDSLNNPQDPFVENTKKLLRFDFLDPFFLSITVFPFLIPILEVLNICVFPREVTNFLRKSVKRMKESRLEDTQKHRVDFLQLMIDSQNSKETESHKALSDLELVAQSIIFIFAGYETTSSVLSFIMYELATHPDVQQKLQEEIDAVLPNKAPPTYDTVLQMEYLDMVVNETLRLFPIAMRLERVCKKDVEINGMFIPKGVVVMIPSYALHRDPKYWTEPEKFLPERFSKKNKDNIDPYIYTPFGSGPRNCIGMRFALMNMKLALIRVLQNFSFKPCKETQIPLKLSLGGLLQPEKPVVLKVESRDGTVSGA
T1 sequence (Q00975 whole entry): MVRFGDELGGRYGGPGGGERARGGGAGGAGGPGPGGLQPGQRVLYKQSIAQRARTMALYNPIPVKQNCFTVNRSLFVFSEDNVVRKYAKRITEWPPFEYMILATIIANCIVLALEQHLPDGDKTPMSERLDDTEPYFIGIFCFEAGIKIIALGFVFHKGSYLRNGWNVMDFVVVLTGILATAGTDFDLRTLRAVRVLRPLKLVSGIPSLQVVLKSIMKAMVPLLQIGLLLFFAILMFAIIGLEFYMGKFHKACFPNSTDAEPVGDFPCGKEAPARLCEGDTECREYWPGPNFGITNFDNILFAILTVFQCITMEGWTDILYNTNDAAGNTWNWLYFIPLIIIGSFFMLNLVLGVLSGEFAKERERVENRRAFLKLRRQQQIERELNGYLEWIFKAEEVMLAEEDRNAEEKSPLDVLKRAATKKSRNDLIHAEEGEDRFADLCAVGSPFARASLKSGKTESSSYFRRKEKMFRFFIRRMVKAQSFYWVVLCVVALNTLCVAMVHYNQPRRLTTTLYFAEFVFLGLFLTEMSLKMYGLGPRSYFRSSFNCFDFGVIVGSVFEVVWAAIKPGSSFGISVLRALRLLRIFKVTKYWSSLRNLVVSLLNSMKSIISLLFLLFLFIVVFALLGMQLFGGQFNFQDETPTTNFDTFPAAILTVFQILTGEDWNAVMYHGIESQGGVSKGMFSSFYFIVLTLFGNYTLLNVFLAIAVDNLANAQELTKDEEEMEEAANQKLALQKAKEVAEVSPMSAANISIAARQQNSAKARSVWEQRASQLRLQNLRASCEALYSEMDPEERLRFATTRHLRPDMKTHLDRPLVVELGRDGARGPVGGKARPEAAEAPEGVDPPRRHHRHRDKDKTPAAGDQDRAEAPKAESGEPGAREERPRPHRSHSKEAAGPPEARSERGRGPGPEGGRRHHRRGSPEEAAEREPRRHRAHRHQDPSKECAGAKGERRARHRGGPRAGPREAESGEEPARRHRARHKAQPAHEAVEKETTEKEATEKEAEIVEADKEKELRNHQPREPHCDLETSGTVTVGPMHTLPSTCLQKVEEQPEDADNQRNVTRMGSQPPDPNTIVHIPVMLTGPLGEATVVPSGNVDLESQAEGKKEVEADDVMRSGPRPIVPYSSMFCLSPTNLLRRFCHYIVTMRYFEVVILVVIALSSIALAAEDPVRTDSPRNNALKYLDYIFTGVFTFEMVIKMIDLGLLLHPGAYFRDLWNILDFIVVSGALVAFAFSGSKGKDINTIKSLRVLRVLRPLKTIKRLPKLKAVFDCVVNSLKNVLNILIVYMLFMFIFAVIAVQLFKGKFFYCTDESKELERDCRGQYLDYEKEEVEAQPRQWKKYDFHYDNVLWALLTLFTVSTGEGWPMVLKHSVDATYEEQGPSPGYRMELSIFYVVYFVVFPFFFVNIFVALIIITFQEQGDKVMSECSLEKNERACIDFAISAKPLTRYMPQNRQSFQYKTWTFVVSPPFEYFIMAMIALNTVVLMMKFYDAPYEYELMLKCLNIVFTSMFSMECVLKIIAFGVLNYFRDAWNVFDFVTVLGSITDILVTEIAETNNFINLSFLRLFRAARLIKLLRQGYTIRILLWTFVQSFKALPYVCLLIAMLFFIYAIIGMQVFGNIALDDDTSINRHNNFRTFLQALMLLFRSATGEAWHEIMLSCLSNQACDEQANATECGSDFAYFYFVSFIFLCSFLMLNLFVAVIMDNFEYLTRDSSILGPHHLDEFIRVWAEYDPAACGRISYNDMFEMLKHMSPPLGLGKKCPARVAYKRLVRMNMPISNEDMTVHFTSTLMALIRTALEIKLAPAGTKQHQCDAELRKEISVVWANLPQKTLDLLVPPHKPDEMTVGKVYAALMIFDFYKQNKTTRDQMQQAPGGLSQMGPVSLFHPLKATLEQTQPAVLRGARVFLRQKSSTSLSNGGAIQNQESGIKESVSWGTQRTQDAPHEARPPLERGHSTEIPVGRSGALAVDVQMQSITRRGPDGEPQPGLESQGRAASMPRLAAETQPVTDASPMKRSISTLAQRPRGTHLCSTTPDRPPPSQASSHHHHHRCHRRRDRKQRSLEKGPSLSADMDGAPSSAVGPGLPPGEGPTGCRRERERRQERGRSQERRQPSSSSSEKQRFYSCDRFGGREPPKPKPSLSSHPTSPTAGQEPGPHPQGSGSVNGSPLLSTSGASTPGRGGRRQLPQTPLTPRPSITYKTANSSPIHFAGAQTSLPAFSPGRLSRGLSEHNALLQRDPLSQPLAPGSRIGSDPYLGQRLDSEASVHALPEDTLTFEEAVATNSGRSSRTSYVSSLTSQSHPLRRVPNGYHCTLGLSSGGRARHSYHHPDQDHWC
T1 sequence (Q02410 whole entry): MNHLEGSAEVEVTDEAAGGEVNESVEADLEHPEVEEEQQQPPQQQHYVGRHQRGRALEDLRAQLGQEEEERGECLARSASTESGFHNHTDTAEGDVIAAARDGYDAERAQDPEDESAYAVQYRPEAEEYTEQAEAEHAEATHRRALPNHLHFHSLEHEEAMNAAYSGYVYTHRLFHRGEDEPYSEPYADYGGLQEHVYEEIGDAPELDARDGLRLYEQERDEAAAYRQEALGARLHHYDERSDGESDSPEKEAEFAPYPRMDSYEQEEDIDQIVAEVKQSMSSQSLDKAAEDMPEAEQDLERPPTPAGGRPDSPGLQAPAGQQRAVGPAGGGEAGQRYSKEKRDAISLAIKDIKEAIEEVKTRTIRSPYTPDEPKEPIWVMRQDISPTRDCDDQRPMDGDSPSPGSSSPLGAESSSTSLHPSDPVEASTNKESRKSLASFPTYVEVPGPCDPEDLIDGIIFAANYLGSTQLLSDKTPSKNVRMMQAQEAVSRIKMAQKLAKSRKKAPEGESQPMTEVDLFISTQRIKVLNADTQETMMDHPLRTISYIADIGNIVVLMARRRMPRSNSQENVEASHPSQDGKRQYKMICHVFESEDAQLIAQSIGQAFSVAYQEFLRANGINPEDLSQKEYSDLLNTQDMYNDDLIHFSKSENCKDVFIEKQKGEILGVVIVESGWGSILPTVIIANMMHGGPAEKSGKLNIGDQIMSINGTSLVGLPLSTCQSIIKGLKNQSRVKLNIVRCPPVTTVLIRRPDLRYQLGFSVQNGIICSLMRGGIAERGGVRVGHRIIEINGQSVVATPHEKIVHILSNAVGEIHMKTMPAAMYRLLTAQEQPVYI
Sequence of Disintegrin and metalloproteinase domain-containing protein 17 (P78536 whole entry, the tested form may be a part): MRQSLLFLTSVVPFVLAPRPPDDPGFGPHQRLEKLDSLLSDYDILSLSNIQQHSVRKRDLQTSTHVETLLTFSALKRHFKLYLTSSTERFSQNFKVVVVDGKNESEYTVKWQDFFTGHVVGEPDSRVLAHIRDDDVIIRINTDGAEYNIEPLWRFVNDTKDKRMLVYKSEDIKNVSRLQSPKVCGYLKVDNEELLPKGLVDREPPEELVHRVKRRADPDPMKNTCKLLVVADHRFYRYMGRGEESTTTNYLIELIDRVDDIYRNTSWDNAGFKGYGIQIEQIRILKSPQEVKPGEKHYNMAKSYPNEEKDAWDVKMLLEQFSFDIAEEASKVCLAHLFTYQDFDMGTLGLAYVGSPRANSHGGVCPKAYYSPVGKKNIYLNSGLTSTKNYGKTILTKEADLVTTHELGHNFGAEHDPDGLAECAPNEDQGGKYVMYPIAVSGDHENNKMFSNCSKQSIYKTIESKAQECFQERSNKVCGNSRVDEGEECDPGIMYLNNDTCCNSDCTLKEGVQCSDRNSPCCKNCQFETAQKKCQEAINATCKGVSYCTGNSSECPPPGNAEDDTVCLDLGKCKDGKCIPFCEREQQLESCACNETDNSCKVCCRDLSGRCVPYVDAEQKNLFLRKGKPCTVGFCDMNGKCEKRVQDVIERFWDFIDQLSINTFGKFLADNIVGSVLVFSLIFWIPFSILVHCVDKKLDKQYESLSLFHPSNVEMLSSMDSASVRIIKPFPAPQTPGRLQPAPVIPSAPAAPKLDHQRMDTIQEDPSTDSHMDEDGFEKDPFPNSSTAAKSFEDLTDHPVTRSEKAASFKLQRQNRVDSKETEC
Sequence of Estrogen receptor beta (Q92731 whole entry): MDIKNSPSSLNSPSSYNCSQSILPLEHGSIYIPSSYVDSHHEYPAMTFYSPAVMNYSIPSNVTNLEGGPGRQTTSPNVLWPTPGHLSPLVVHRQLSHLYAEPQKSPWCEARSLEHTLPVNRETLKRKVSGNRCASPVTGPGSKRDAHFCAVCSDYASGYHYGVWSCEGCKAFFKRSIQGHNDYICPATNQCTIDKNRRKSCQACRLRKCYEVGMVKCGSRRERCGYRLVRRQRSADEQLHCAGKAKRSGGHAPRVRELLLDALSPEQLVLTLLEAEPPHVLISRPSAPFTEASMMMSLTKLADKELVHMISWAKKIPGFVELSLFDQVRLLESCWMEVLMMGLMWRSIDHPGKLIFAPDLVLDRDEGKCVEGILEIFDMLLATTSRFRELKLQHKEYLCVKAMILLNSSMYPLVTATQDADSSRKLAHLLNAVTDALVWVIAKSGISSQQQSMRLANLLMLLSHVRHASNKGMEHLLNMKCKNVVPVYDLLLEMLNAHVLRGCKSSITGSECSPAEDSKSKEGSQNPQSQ

CCNC(=S)NC(=Nc1nc(C)cc(C)n1)NCc1cccnc1
IC50 [1]: 9.16 µM (active)
IC50 [2]: > 50 µM (inactive)
IC50 [3]: > 66 µM (inactive)
IC50 [4]: > 66 µM (inactive)

Cc1oc2nc(SCC(=O)NCCCO)nc(N)c2c1C
IC50 (Estrogen receptor beta): > 50 µM (not active)

COCCNC(=O)CSc1nnc2c(Cl)cc(Cl)cn12
IC50 (Coagulation factor XII): > 50 µM (inactive)

COc1ccc(-c2ccc(CN3C(C(C)C)C(=O)N(Cc4cn(Cc5ccco5)nn4)CCS3(=O)=O)cc2)cc1OC (centres undefined)
IC50 [5]: > 69.5 µM (inactive)
IC50 [6]: > 69.5 µM (inactive)

Cc1ccc(/C=C/C(=O)Nc2ccc(Oc3ccccc3)cc2)o1
AC50 [7]: 5.29 µM (active)
IC50 [5]: > 69.6 µM (inactive)
IC50 [6]: > 69.6 µM (inactive)

CC1CCN(C(=O)c2ccc3ccccc3c2)CC1
EC50 [8]: < 0.1 µM (active)
EC50 [9]: 10.2 µM (active)
EC50 [10]: 35 µM (active)
EC50 [11]: 1.09 µM (active)
EC50 [12]: 0.449 µM (active)
EC50 (H4): > 120 µM (not active)

CCN(CCNC(=O)C1CCN(Cc2nc(-c3ccc(Cl)cc3)oc2C)CC1)c1ccccc1
EC50 [13]: > 20 µM (not active)
AC50 [14]: 4.08 µM (active)
EC50 [15]: 6.02 µM (active)
EC50 [16]: 6.26 µM (active)
EC50 [17]: > 20 µM (not active)

COc1ccc(NC(=O)c2oc3ccccc3c2NC(=O)c2ccc(OC)c(OC)c2)c(OC)c1
EC50 [13]: > 20 µM (not active)
EC50 [17]: > 20 µM (not active)

COc1ccc2c3nc4ccccc4c-3c(O)oc2c1
EC50 [9]: 0.533 µM (active)
EC50 [10]: < 0.1 µM (active)
EC50 [11]: > 12 µM (not active)
EC50 [18]: 8.33 µM (active)
EC50 [12]: 0.393 µM (active)
EC50 [19]: 7.49 µM (active)
EC50 (H4): 20.1 µM (inconclusive)
EC50 [20]: > 79.4 µM (not active)

COC(=O)N1CCC2(CC1)CN(C(c1ccccc1)c1ccccc1)C2
AC50 (Cytochrome P450 2C19): 39.8 µM (inconclusive)
AC50 (Cytochrome P450 3A4): inconclusive

COc1ccc(OC)c(C2CC(=O)N3CN(c4ccccc4)CSC3=C2C#N)c1 (centres undefined)
IC50 [1]: 6.54 µM (active)
IC50 [2]: > 50 µM (inactive)
IC50 [21]: 11.8 µM (active)

COc1ccc(-c2csc(NC(=O)COC(=O)c3ccco3)n2)cc1
EC50 [8]: 35.9 µM (active)
EC50 [9]: > 12 µM (not active)
EC50 [10]: 29 µM (active)
EC50 [11]: > 12 µM (not active)
EC50 [12]: > 12 µM (not active)
EC50 (H4): 0.188 µM (active)

COc1ccc(C2N(c3ccccc3)CCN2c2ccccc2)cc1O
IC50 (Coagulation factor XII): > 50 µM (inactive)

Cn1c2c(c3ccccc31)CCSC2=O
CC50 [22]: > 50 µM (active)
IC50 (Coagulation factor XII): > 50 µM (inactive)

COc1ccc(/N=C2\SC(CC(=O)Nc3ccc(F)cc3)C(=O)N2Cc2ccco2)cc1 (centres undefined)
IC50 [5]: > 69.5 µM (inactive)
IC50 [6]: > 69.5 µM (inactive)

COC(=O)Nc1c(-c2ccccc2)nc2ccc(C)cn12
IC50 (Estrogen receptor beta): > 50 µM (not active)

CCC(C)NCCCCOc1ccc(Cl)cc1C (centres undefined)
AC50 [23]: > 20 µM (inactive)

Fc1cc(F)c2nc(N3CCCC3)sc2c1
IC50 (Coagulation factor XII): > 50 µM (inactive)

C/C(NCCN1CCOCC1)=C1/C(=O)NC(=O)N(Cc2ccccc2)C1=O
AC50 (Cytochrome P450 3A4): inconclusive
AC50 (Cytochrome P450 2C9): 25.1 µM (inconclusive)

CC(C)CN(CC(C)C)C1=N/C(=C\c2ccco2)C(=O)N1c1ccccc1
AC50 (Cytochrome P450 3A4): inconclusive
